Assays:
Cruzipain = Cruzipain (Trypanosoma cruzi, UniProt P25779); assay: Inhibitory concentration against cruzain of Trypanosoma cruzi
Rhodesain = Rhodesain (Trypanosoma brucei rhodesiense, UniProt Q95PM0); assay: Inhibitory concentration against rhodesain of Trypanosoma brucei rhodesience
Falcipain 2 = biological target: T1, Falcipain 2 (Plasmodium falciparum, UniProt Q9N6S8); assay: Inhibitory concentration against falcipain-2 of Plasmodium falciparum W2
T1 sequence (Q9N6S8 whole entry): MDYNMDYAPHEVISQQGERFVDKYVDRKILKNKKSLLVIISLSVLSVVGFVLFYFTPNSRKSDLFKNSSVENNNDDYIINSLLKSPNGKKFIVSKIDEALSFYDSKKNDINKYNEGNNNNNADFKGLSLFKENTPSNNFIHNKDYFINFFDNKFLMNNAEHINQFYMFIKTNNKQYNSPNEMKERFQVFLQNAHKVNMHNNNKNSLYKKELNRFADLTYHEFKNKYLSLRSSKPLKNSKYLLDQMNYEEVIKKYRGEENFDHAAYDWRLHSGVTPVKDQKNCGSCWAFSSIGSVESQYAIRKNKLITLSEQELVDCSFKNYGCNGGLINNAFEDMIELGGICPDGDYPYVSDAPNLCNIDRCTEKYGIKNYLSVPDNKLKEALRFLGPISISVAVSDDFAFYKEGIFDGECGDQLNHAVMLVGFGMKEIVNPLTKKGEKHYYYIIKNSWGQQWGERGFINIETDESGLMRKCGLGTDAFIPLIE

[1] = tested on: Trypanosoma brucei rhodesiense; assay: Effective dose to inhibit proliferation of Trypanosoma brucei rhodesiense in cell assay; format: functional; details: read-out: ED50 (the source's name)
Trypanosoma cruzi = assay: Effective dose to inhibit proliferation of Trypanosoma cruzi in cell assay; format: functional; details: read-out: ED50 (the source's name)
Plasmodium falciparum [2] = assay: Effective dose against Plasmodium falciparum W2; format: functional; details: read-out: ED50 (the source's name)
Plasmodium falciparum [3] = assay: Effective dose against Plasmodium falciparum W2; Not active; format: functional; details: read-out: ED50 (the source's name)

Sequence of Rhodesain (Q95PM0 whole entry): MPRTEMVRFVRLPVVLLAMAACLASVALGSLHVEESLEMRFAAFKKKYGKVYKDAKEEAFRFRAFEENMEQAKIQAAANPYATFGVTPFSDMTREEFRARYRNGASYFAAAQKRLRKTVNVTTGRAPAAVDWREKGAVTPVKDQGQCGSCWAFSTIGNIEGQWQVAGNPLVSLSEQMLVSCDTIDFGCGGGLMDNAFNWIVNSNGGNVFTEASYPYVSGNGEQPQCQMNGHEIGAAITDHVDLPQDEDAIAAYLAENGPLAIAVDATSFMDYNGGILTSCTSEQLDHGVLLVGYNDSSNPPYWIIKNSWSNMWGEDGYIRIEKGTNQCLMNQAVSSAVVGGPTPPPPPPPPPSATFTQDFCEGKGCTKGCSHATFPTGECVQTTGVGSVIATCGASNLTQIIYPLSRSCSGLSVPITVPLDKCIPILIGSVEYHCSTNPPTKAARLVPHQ
Sequence of Cruzipain (P25779 whole entry): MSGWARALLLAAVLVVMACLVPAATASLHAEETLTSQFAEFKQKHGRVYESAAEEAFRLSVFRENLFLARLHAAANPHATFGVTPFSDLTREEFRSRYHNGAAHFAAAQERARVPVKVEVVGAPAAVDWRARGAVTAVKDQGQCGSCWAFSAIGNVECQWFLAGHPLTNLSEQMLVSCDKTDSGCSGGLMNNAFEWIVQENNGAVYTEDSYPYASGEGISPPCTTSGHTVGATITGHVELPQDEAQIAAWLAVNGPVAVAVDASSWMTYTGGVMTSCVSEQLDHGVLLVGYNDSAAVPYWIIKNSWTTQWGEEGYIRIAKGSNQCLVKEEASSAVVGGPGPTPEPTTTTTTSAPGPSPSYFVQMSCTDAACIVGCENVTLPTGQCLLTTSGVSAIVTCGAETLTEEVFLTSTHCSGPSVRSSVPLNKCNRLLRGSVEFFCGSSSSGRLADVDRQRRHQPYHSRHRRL

## CCCC/C(=N\NC(N)=S)c1ccc(Cl)c(Cl)c1
Cruzipain
  IC50: 19 nM
Rhodesain
  IC50: 60 nM
Falcipain 2
  IC50: 620 nM
[1]
  EC50: 130 nM
Trypanosoma cruzi
  EC50: 3000 nM

## N/C(S)=N/N=C(/c1ccc(Cl)c(Cl)c1)C1CCCCC1
Cruzipain
  IC50: 3000 nM
Rhodesain
  IC50: 1100 nM
Falcipain 2
  IC50: 14000 nM

## Cc1ccc(/C(=N\N=C(\N)S)c2ccc(Cl)c(Cl)c2)cc1
Cruzipain
  IC50: 40 nM
Rhodesain
  IC50: 38 nM
Falcipain 2
  IC50: 1800 nM

## N/C(S)=N/N=C(/c1ccc(Cl)c(Cl)c1)C1CC1c1ccccc1 (configuration not stated)
Cruzipain
  IC50: 30 nM
Rhodesain
  IC50: 60 nM
Falcipain 2
  IC50: 640 nM
[1]
  EC50: 570 nM

## N/C(S)=N/N=C(\Cc1ccccc1)c1ccc(Cl)c(Cl)c1
Cruzipain
  IC50: 80 nM
Rhodesain
  IC50: 80 nM
Falcipain 2
  IC50: 8400 nM
Plasmodium falciparum [2]
  EC50: 19000 nM

## CC/C(=N\N=C(\N)S)c1ccc(Cl)c(Cl)c1
Cruzipain
  IC50: 30 nM
Rhodesain
  IC50: 110 nM

## N/C(S)=N/N=C(\CCc1ccccc1)c1ccc(Cl)c(Cl)c1
Cruzipain
  IC50: 40 nM
Rhodesain
  IC50: 90 nM
Falcipain 2
  IC50: 2600 nM
[1]
  EC50: 69 nM

## N/C(S)=N/N=C(\C=C\c1ccccc1)c1ccc(Cl)c(Cl)c1
Cruzipain
  IC50: 30 nM
Rhodesain
  IC50: 38 nM
Falcipain 2
  IC50: 470 nM
Plasmodium falciparum [3]
  EC50: 9000 nM
[1]
  EC50: 72 nM

## N/C(S)=N/N=C(\COc1ccccc1)c1ccc(Cl)c(Cl)c1
Cruzipain
  IC50: 30 nM
Rhodesain
  IC50: 70 nM
Falcipain 2
  IC50: 375 nM
[1]
  EC50: 1500 nM

## CC/C(=N\NC(N)=S)c1cccc(Br)c1
Rhodesain
  IC50: 230 nM

## CC(C)(C)/C(=N\N=C(\N)S)c1ccc(Cl)c(Cl)c1
Cruzipain
  IC50: > 10000 nM
Rhodesain
  IC50: 3330 nM
